Data from the NIST ThermoML archive (doi:10.1016/j.fluid.2005.02.014).
Numbers after ± are expanded uncertainties.

Conditions: Liquid; for mass density: 298.15 K, 101.33 kPa

Normal boiling temperature [°C]	mass density (Vibrating tube method) [kg/m3]	SMILES	mass density [kg/m3]
68.90 ± 0.26		CC(C)CCl [1-chloro-2-methylpropane]	870.94 ± 0.99
50.73 ± 0.26		CC(C)(C)Cl [2-chloro-2-methylpropane]	836.45 ± 0.65
88.08 ± 0.26	878.8 ± 0.5	C1CCOCC1 [tetrahydropyran]	

SMILES	Normal boiling temperature [°C]	mass density (Vibrating tube method) [kg/m3]	mass density [kg/m3]
CCCCCl [1-chlorobutane]	78.37 ± 0.26		880.67 ± 0.6
CCC(C)Cl (stereo not given) [2-chlorobutane]	68.11 ± 0.26		867.26 ± 0.62
